This note sets out measurements from patent US20250368666A1, “INDAZOLE COMPOUNDS” (TYRA BIOSCIENCES, INC., priority 2022, published 2025).

For experiment [1], the target named is T1, FGFR3 (Homo sapiens, UniProt P22607).
T1 construct: made in house; host or cells: E. coli (BL21-derived), T7 phage
In words: Kinase binding assay (kinase-tagged T7 phage, affinity beads, qPCR), Kd. Particulars: read-out: FGFR3 (Kd nM). In outline:
(§1)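 Kd obtained by Levenberg–Marquardt Hill-equation fit (slope −1) to qPCR-measured kinase retained on ligand-coated streptavidin beads.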

In experiment [2] the target is T2, FGFR3 (V555M) (Homo sapiens, UniProt P22607, V555M).
T2 construct: made in house; host or cells: E. coli (BL21-derived), T7 phage
Described as above. Particulars: V555M mutant; read-out: FGFR3 (V555M) (Kd nM). In outline: as §1

Experiment [3] concerns the target T3, FGFR2 (Homo sapiens, UniProt P21802).
T3 construct: made in house; host or cells: E. coli (BL21-derived), T7 phage
The description is as above. To be noted: read-out: FGFR2 (Kd nM). In outline:
as §1

The target in experiment [4] is T4, FGFR1 (Homo sapiens, UniProt P11362).
T4 construct: made in house; host or cells: E. coli (BL21-derived), T7 phage
The experiment is described as above. Particulars: read-out: FGFR1 (Kd nM). The procedure, abridged: as §1

The target of experiment [5] is T5, FGFR4 (Homo sapiens, UniProt P22455).
T5 construct: made in house; host or cells: E. coli (BL21-derived), T7 phage
Described as above. To be noted: read-out: FGFR4 (Kd nM). In outline: as §1

For experiment [6], the system named is KATO-III cell line (FGFR2 amplification). In words: Cancer cell line cell viability assay (Cell Titer-Glo), 72 hr. In kind it is cell-based. Particulars: Homo sapiens, KATO III. The procedure, abridged: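 Following overnight attachment, each line receives compound in triplicate across nine 4-fold dilutions starting at 3 μM, with DMSO backfill for equal solvent. Luminescence after Cell Titer-Glo 2.0 addition gives percent viability versus DMSO control, fitted by 4-parameter logistic for IC50.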

Experiment [7] concerns KG-1 cell line (FGFR 1-fusion). The description is as above. In kind it is cell-based. Particulars: Homo sapiens, KG-1, KG-1 cell line (FGFR1-fusion). In outline:
(§2)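 Intracellular ATP was measured by Cell Titer-Glo 2.0 luminescence after cells were incubated with compound dilutions (top 3 μM, 4-fold, 9 doses). Values were expressed relative to DMSO-treated cells and IC50 was calculated from a variable-slope dose-response curve.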

Experiment [8] has as its system RT112/84 cell line (FGFR3-fusion). Described as above. In kind it is cell-based. Particulars: Homo sapiens, RT112/84, RT112/84 cell line (FGFR3-fusion). In outline: as §2

T3 sequence (P21802 22-821): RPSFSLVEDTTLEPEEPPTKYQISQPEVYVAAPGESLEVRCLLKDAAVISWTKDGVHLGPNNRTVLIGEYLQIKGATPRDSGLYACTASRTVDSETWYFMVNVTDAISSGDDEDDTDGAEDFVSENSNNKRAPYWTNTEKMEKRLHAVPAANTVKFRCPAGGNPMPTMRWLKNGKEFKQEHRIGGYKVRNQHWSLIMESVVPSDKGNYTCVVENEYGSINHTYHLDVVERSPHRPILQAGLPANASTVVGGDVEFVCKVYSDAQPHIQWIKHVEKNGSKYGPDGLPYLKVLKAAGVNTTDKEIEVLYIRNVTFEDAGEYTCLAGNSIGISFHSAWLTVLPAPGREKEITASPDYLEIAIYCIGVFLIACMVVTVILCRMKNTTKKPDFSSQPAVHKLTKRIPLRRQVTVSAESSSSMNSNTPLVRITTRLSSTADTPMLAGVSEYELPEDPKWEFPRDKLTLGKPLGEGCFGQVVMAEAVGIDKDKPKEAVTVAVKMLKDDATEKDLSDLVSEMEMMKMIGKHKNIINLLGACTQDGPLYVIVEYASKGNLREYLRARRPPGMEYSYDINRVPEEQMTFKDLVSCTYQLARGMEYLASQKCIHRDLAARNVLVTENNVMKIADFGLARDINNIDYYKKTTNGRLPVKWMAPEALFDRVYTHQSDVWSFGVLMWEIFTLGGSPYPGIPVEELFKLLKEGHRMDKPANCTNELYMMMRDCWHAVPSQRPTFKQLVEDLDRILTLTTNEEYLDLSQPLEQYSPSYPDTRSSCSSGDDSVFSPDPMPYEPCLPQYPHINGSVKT
T4 sequence (P11362 22-822): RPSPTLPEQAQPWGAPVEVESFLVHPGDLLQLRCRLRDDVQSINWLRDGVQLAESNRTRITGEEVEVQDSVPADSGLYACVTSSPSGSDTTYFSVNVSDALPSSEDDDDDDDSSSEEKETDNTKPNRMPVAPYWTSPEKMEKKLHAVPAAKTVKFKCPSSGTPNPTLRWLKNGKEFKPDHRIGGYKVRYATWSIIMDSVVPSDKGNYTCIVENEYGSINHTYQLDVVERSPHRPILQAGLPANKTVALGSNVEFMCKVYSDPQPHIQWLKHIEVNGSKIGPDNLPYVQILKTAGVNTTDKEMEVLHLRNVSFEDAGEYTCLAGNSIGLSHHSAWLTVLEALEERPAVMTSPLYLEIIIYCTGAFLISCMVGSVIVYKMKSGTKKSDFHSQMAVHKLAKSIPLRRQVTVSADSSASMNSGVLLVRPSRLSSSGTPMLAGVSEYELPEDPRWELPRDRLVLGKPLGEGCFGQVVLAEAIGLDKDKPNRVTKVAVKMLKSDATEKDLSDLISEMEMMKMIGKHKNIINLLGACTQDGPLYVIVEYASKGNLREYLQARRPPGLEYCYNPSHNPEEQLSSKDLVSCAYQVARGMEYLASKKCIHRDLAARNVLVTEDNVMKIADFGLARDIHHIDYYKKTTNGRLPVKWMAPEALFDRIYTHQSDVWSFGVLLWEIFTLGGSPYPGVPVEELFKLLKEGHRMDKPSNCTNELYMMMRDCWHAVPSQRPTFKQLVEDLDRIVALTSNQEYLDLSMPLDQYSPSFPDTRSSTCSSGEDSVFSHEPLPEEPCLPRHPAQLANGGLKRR
T5 sequence (P22455 22-802): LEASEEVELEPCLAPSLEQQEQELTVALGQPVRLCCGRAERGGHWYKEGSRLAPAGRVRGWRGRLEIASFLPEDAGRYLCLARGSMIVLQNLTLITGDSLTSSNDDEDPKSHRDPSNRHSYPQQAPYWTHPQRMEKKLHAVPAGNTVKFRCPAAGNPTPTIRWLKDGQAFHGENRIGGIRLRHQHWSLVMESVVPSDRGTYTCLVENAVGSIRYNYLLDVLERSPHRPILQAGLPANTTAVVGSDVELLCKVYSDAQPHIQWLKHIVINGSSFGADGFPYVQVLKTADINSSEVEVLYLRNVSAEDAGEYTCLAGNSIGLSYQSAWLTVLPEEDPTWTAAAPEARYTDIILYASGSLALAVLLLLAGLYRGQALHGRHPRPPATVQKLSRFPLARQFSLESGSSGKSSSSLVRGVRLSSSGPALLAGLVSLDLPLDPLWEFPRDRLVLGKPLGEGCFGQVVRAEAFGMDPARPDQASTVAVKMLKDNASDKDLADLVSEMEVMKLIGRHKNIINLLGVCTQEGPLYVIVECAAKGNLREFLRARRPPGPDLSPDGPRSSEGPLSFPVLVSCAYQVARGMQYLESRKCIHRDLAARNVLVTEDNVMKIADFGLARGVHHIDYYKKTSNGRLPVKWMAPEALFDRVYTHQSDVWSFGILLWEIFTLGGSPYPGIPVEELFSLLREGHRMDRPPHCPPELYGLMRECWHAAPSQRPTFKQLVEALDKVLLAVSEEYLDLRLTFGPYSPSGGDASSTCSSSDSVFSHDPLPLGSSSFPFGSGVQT
T1 sequence (P22607 23-806): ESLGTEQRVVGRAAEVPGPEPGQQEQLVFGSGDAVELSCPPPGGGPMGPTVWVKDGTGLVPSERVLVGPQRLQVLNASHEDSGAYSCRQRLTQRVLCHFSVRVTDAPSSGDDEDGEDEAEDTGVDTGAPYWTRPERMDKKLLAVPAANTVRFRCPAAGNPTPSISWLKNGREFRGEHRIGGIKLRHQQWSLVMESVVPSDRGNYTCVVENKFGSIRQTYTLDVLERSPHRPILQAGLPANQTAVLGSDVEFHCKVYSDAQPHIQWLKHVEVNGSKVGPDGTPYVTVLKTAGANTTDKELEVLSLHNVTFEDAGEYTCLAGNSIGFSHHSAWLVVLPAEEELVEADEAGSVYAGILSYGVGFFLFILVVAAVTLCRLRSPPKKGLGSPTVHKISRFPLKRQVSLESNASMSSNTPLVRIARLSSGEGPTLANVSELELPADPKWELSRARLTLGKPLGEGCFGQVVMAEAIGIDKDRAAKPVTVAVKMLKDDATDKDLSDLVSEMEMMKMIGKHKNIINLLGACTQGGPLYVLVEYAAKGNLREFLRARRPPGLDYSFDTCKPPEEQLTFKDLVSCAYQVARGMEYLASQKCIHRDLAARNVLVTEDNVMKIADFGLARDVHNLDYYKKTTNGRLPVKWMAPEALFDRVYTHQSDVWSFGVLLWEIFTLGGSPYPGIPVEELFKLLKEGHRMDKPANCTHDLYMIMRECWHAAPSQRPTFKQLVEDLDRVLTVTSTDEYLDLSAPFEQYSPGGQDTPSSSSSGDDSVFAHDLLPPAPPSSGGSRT
T2 sequence (P22607 23-806 V555M): as the sequence (P22607 23-806) above, with V533M counted along it

Consider `COC1(C)CN(C2(C)CN(c3ncc(-c4n[nH]c5ccc(O[C@H](C)c6c(Cl)cncc6Cl)cc45)cc3F)C2)C1` [Example 97, (R)-5-(1-(3,5-dichloropyridin-4-yl)ethoxy)-3-(5-fluoro-6-(3-methoxy-3,3′-dimethyl-[1,3′-biazetidin]-1′-yl)pyridin-3-yl)-1H-indazole], for which the equilibrium dissociation constant (Kd) in experiment [1], in experiment [2], in experiment [3], in experiment [4] and in experiment [5] was 1 to 50 nM in each case. Moreover, the half-maximal inhibitory concentration (IC50) – broadly, the concentration needed to halve the response being measured – in experiment [6] fell in the range of 0.1 to 50 nM; in experiment [7], 50 to 200 nM; in experiment [8], 0.1 to 50 nM.
As to `C[C@@H](Oc1ccc2[nH]nc(-c3cnc(N4CC(C)(N5CCC5)C4)c(F)c3)c2c1)c1c(Cl)cncc1Cl` [Example 103, (R)-5-(1-(3,5-dichloropyridin-4-yl)ethoxy)-3-(5-fluoro-6-(3′-methyl-[1,3′-biazetidin]-1′-yl)pyridin-3-yl)-1H-indazole], the dissociation constant Kd in experiment [1], in experiment [2], in experiment [3], in experiment [4] and in experiment [5] was 1 to 50 nM each time. For the same molecule, the IC50 in experiment [6], in experiment [7] and in experiment [8] was 0.1 to 50 nM in each case.
With `CC(C)NCC1(C)CN(c2ncc(-c3n[nH]c4ccc(O[C@H](C)c5c(Cl)cncc5Cl)cc34)cc2F)C1` [Example 108, (R)-N-((1-(5-(5-(1-(3,5-dichloropyridin-4-yl)ethoxy)-1H-indazol-3-yl)-3-fluoropyridin-2-yl)-3-methylazetidin-3-yl)methyl)propan-2-amine], the Kd in experiment [1], in experiment [2], in experiment [3], in experiment [4] and in experiment [5] was 1 to 50 nM in each case. Further, the IC50 in experiment [6], in experiment [7] and in experiment [8] was 0.1 to 50 nM each time.
Take `C[C@@H](Oc1ccc2[nH]nc(-c3cnc(N4CC(C)(CN5CCOCC5)C4)c(F)c3)c2c1)c1c(Cl)cncc1Cl` [Example 109, (R)-4-((1-(5-(5-(1-(3,5-dichloropyridin-4-yl)ethoxy)-1H-indazol-3-yl)-3-fluoropyridin-2-yl)-3-methylazetidin-3-yl)methyl)morpholine]: the Kd in experiment [1], in experiment [2], in experiment [3], in experiment [4] and in experiment [5] was 1 to 50 nM throughout. Also, the figures for the half-maximal inhibitory concentration (IC50) in experiment [6], in experiment [7] and in experiment [8] were 50 to 200 nM, 50 to 200 nM and 0.1 to 50 nM, respectively.
`C[C@@H](Oc1ccc2[nH]nc(-c3cnc(N4CC(C)(CN5CCCC5)C4)c(F)c3)c2c1)c1c(Cl)cncc1Cl` [Example 110, (R)-5-(1-(3,5-dichloropyridin-4-yl)ethoxy)-3-(5-fluoro-6-(3-methyl-3-(pyrrolidin-1-ylmethyl)azetidin-1-yl)pyridin-3-yl)-1H-indazole]: the Kd in experiment [1], in experiment [2], in experiment [3], in experiment [4] and in experiment [5] was 1 to 50 nM in each case. Further, the IC50 in experiment [6], in experiment [7] and in experiment [8] was 0.1 to 50 nM in each case.
Consider `C[C@@H](Oc1ccc2[nH]nc(-c3cnc(N4CC(C)(N5CC(C)(C)C5)C4)c(F)c3)c2c1)c1c(Cl)cncc1Cl` [Example 111, (R)-5-(1-(3,5-dichloropyridin-4-yl)ethoxy)-3-(5-fluoro-6-(3,3,3′-trimethyl-[1,3′-biazetidin]-1′-yl)pyridin-3-yl)-1H-indazole], for which the Kd in experiment [1], in experiment [2], in experiment [3], in experiment [4] and in experiment [5] was 1 to 50 nM in each case. The half-maximal inhibitory concentration (IC50) in experiment [6] lay in the range of 0.1 to 50 nM; in experiment [7] it was 50 to 200 nM; in experiment [8] it was 0.1 to 50 nM.
Regarding `C[C@H](O)CNC1(C)CN(c2ncc(-c3n[nH]c4ccc(O[C@H](C)c5c(Cl)cncc5Cl)cc34)cc2F)C1` [Example 112, (S)-1-((1-(5-(5-((R)-1-(3,5-dichloropyridin-4-yl)ethoxy)-1H-indazol-3-yl)-3-fluoropyridin-2-yl)-3-methylazetidin-3-yl)amino)propan-2-ol], the dissociation constant (Kd) in experiment [1], in experiment [2], in experiment [3], in experiment [4] and in experiment [5] was 1 to 50 nM in each case. For the same molecule, the IC50 in experiment [6], in experiment [7] and in experiment [8] was 0.1 to 50 nM each time.
As to `C[C@@H](Oc1ccc2[nH]nc(-c3cnc(N4CC(C)(NCC(C)(C)O)C4)c(F)c3)c2c1)c1c(Cl)cncc1Cl` [Example 113, (R)-1-((1-(5-(5-(1-(3,5-dichloropyridin-4-yl)ethoxy)-1H-indazol-3-yl)-3-fluoropyridin-2-yl)-3-methylazetidin-3-yl)amino)-2-methylpropan-2-ol], the Kd in experiment [1], in experiment [2], in experiment [3], in experiment [4] and in experiment [5] was 1 to 50 nM each time. Also, the IC50 is 0.1 to 50 nM in experiment [6], 50 to 200 nM in experiment [7] and 0.1 to 50 nM in experiment [8].
As to `C[C@@H](Oc1ccc2[nH]nc(-c3cnc(N4CC(C)(NCCO)C4)c(F)c3)c2c1)c1c(Cl)cncc1Cl` [Example 114, (R)-2-((1-(5-(5-(1-(3,5-dichloropyridin-4-yl)ethoxy)-1H-indazol-3-yl)-3-fluoropyridin-2-yl)-3-methylazetidin-3-yl)amino)ethan-1-ol], the Kd in experiment [1], in experiment [2], in experiment [3], in experiment [4] and in experiment [5] was 1 to 50 nM each time. The IC50 in experiment [6], in experiment [7] and in experiment [8] was 0.1 to 50 nM in each case.
Consider `C[C@@H](Oc1ccc2[nH]nc(-c3ccc(N4CC(C)(NCC(C)(C)O)C4)nc3)c2c1)c1c(Cl)cncc1Cl` [Example 115, (R)-1-((1-(5-(5-(1-(3,5-dichloropyridin-4-yl)ethoxy)-1H-indazol-3-yl)pyridin-2-yl)-3-methylazetidin-3-yl)amino)-2-methylpropan-2-ol], for which the Kd in experiment [1], in experiment [2], in experiment [3], in experiment [4] and in experiment [5] was 1 to 50 nM each time. Also, the IC50 in experiment [6], in experiment [7] and in experiment [8] was 0.1 to 50 nM each time.
As to `C[C@@H](Oc1ccc2[nH]nc(-c3ccc(N4CC(C)(N5CCC5)C4)nc3)c2c1)c1c(Cl)cncc1Cl` [Example 116, 3-[6-[3-(azetidin-1-yl)-3-methyl-azetidin-1-yl]-3-pyridyl]-5-[(1R)-1-(3,5-dichloro-4-pyridyl)ethoxy]-1H-indazole], the dissociation constant (Kd) in experiment [1], in experiment [2], in experiment [3], in experiment [4] and in experiment [5] was 1 to 50 nM in each case. Further, the IC50 in experiment [6], in experiment [7] and in experiment [8] was 0.1 to 50 nM throughout.
`CC(C)NC1(C)CN(c2ncc(-c3n[nH]c4ccc(O[C@H](C)c5c(Cl)cncc5Cl)cc34)cc2F)C1` [Example 117, (R)-1-(5-(5-(1-(3,5-dichloropyridin-4-yl)ethoxy)-1H-indazol-3-yl)-3-fluoropyridin-2-yl)-N-isopropyl-3-methylazetidin-3-amine]: the Kd in experiment [1], in experiment [2], in experiment [3], in experiment [4] and in experiment [5] was 1 to 50 nM each time. Moreover, the IC50 in experiment [6] was in the range of 50 to 200 nM; in experiment [7], 50 to 200 nM; in experiment [8], 0.1 to 50 nM.
`C[C@@H](Oc1ccc2[nH]nc(-c3cnc(N4CC(C)(NCC5(O)CC5)C4)c(F)c3)c2c1)c1c(Cl)cncc1Cl` [Example 118, (R)-1-(((1-(5-(5-(1-(3,5-dichloropyridin-4-yl)ethoxy)-1H-indazol-3-yl)-3-fluoropyridin-2-yl)-3-methylazetidin-3-yl)amino)methyl)cyclo-propan-1-ol]: the Kd in experiment [1], in experiment [2], in experiment [3], in experiment [4] and in experiment [5] was 1 to 50 nM throughout. The concentration for half-maximal inhibition (IC50) in experiment [6], in experiment [7] and in experiment [8] was 0.1 to 50 nM in each case.
